Source: patent publication US8445501B2, “Substituted 7-carboxamido-pyrrolo[3,2-d]pyrimidines” (Takeda GmbH, priority 2008, dated 2013)

Target: T1, human PDE5 (Homo sapiens, UniProt O76074)
T1 construct: from tissue; host or cells: platelets from fresh blood of human donors (lysate, 10,000 g supernatant)
Assay: Inhibition of the type 5 phosphodiesterase (PDE5) activity, modified SPA test with platelet lysate
Assay type: biochemical
Details: PDE5 from human platelet lysate, 0.5 μM cGMP
In short: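 Human platelet lysate (10,000 g supernatant) as PDE5 source in SPA with 0.5 μM cGMP plus [3H]cGMP tracer, pH 7.4, 5 mM Mg2+, 1 μM motapizone and 10 nM PDE2 inhibitor; 10–20% conversion. 5 min preincubation, 15 min at 37 °C, stopped with SPA beads/IBMX. IC50 by non-linear regression.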

| SMILES | IC50 |
| --- | --- |
| COCCOc1ccc2c(c1-c1ncnc3c(C(=O)NC4CCN(C(=O)COC)CC4)c[nH]c13)OCO2 [Example 170, 4-[5-(2-Methoxy-ethoxy)-benzo[1,3]dioxol-4-yl]-5H-pyrrolo[3,2-d]pyrimidine-7-carboxylic acid [1-(2-methoxy-acetyl)piperidin-4-yl]-amide] | 13.8 nM |
| O=C(NC1CCN(C(=O)CO)CC1)c1c[nH]c2c(-c3c(OCC4CC4)ccc4c3OCO4)ncnc12 [Example 171, 4-(5-Cyclopropylmethoxy-benzo[1,3]dioxol-4-yl)-5H-pyrrolo[3,2-d]pyrimidine-7-carboxylic acid [1-(2-hydroxy-ethanoyl)-piperidin-4-yl]amide] | 0.302 nM |
| O=C(CO)N[C@H]1CC[C@H](NC(=O)c2c[nH]c3c(-c4c(OCC5CC5)ccc5c4OCO5)ncnc23)CC1 [Example 172] | 0.112 nM |
| C[C@H](O)C(=O)N[C@H]1CC[C@H](NC(=O)c2c[nH]c3c(-c4c(OCC5CC5)ccc5c4OCO5)ncnc23)CC1 [Example 173] | 0.186 nM |
| O=C(CO)N[C@H]1CC[C@@H](NC(=O)c2c[nH]c3c(-c4c(OCC5CC5)ccc5c4OCO5)ncnc23)CC1 [Example 174] | 0.389 nM |
| C[C@H](O)C(=O)N[C@H]1CC[C@@H](NC(=O)c2c[nH]c3c(-c4c(OCC5CC5)ccc5c4OCO5)ncnc23)CC1 [Example 175] | 0.245 nM |
| C[C@H](O)C(=O)N1CCC(NC(=O)c2c[nH]c3c(-c4c(OCC5CC5)ccc5c4OCO5)ncnc23)CC1 [Example 176, 4-(5-Cyclopropylmethoxy-benzo[1,3]dioxol-4-yl)-5H-pyrrolo[3,2-d]pyrimidine-7-carboxylic acid [1-((S)-2-hydroxy-propanoyl)-piperidin-4-yl]amide] | 0.245 nM |
| O=C(N[C@H]1CC[C@H](NC(=O)C2(O)CC2)CC1)c1c[nH]c2c(-c3c(OCC4CC4)ccc4c3OCO4)ncnc12 [Example 177, trans-4-(5-Cyclopropylmethoxy-benzo[1,3]dioxol-4-yl)-5H-pyrrolo[3,2-d]pyrimidine-7-carboxylic acid {4-[(1-hydroxy-cyclopropanecarbonyl)-amino]-cyclohexyl}-amide] | 0.123 nM |
| O=C(N[C@H]1CC[C@@H](NC(=O)C2(O)CC2)CC1)c1c[nH]c2c(-c3c(OCC4CC4)ccc4c3OCO4)ncnc12 [Example 178, cis-4-(5-Cyclopropylmethoxy-benzo[1,3]dioxol-4-yl)-5H-pyrrolo[3,2-d]pyrimidine-7-carboxylic acid {4-[(1-hydroxy-cyclopropanecarbonyl)-amino]-cyclohexyl}-amide] | 0.229 nM |
| O=C(NC1CCN(C(=O)C2(O)CC2)CC1)c1c[nH]c2c(-c3c(OCC4CC4)ccc4c3OCO4)ncnc12 [Example 179, 4-(5-Cyclopropylmethoxy-benzo[1,3]dioxol-4-yl)-5H-pyrrolo[3,2-d]pyrimidine-7-carboxylic acid {1-[1-(1-hydroxy-cyclopropyl)methanoyl]-piperidin-4-yl}-amide] | 0.182 nM |
| O=C(N[C@@H]1CCN(C(=O)CO)C1)c1c[nH]c2c(-c3c(OCC4CC4)ccc4c3OCO4)ncnc12 [Example 180, 4-(5-Cyclopropylmethoxy-benzo[1,3]dioxol-4-yl)-5H-pyrrolo[3,2-d]pyrimidine-7-carboxylic acid [(R)-1-(2-hydroxy-ethanoyl)-pyrrolidin-3-yl]amide] | 1.2 nM |
| C[C@H](O)C(=O)N1CC[C@@H](NC(=O)c2c[nH]c3c(-c4c(OCC5CC5)ccc5c4OCO5)ncnc23)C1 [Example 181, 4-(5-Cyclopropylmethoxy-benzo[1,3]dioxol-4-yl)-5H-pyrrolo[3,2-d]pyrimidine-7-carboxylic acid [(R)-1-((S)-2-hydroxy-propanoyl)-pyrrolidin-3-yl]amide] | 0.589 nM |
| O=C(N[C@@H]1CCN(C(=O)C2(O)CC2)C1)c1c[nH]c2c(-c3c(OCC4CC4)ccc4c3OCO4)ncnc12 [Example 182, 4-(5-Cyclopropylmethoxy-benzo[1,3]dioxol-4-yl)-5H-pyrrolo[3,2-d]pyrimidine-7-carboxylic acid {(R)-1-[1-(1-hydroxy-cyclopropyl)-methanoyl]-pyrrolidin-3-yl}-amide] | 0.479 nM |
| O=C(N[C@H]1CCN(C(=O)CO)C1)c1c[nH]c2c(-c3c(OCC4CC4)ccc4c3OCO4)ncnc12 [Example 183, 4-(5-Cyclopropylmethoxy-benzo[1,3]dioxol-4-yl)-5H-pyrrolo[3,2-d]pyrimidine-7-carboxylic acid [(S)-1-(2-hydroxy-ethanoyl)-pyrrolidin-3-yl]amide] | 1.86 nM |
| C[C@H](O)C(=O)N1CC[C@H](NC(=O)c2c[nH]c3c(-c4c(OCC5CC5)ccc5c4OCO5)ncnc23)C1 [Example 184, 4-(5-Cyclopropylmethoxy-benzo[1,3]dioxol-4-yl)-5H-pyrrolo[3,2-d]pyrimidine-7-carboxylic acid [(S)-1-((S)-2-hydroxy-propanoyl)-pyrrolidin-3-yl]amide] | 3.16 nM |
| O=C(N[C@H]1CCN(C(=O)C2(O)CC2)C1)c1c[nH]c2c(-c3c(OCC4CC4)ccc4c3OCO4)ncnc12 [Example 185, 4-(5-Cyclopropylmethoxy-benzo[1,3]dioxol-4-yl)-5H-pyrrolo[3,2-d]pyrimidine-7-carboxylic acid {(S)-1-[1-(1-hydroxy-cyclopropyl)-methanoyl]-pyrrolidin-3-yl}-amide] | 2.04 nM |
| O=C(NCC1CCN(C(=O)CO)CC1)c1c[nH]c2c(-c3c(OCC4CC4)ccc4c3OCO4)ncnc12 [Example 186, 4-(5-Cyclopropylmethoxy-benzo[1,3]dioxol-4-yl)-5H-pyrrolo[3,2-d]pyrimidine-7-carboxylic acid [1-(2-hydroxy-ethanoyl)-piperidin-4-ylmethyl]-amide] | 0.55 nM |
| C[C@H](O)C(=O)N1CCC(CNC(=O)c2c[nH]c3c(-c4c(OCC5CC5)ccc5c4OCO5)ncnc23)CC1 [Example 187, 4-(5-Cyclopropylmethoxy-benzo[1,3]dioxol-4-yl)-5H-pyrrolo[3,2-d]pyrimidine-7-carboxylic acid [1-((S)-2-hydroxy-propanoyl)piperidin-4-ylmethyl]-amide] | 0.457 nM |
| O=C(NCC1CCN(C(=O)C2(O)CC2)CC1)c1c[nH]c2c(-c3c(OCC4CC4)ccc4c3OCO4)ncnc12 [Example 188, 4-(5-Cyclopropylmethoxy-benzo[1,3]dioxol-4-yl)-5H-pyrrolo[3,2-d]pyrimidine-7-carboxylic acid {1-[1-(1-hydroxy-cyclopropyl)-methanoyl]-piperidin-4-ylmethyl}-amide] | 0.513 nM |
| O=C(NCC1CCCN(C(=O)CO)C1)c1c[nH]c2c(-c3c(OCC4CC4)ccc4c3OCO4)ncnc12 (stereo not shown) [Example 189, 4-(5-Cyclopropylmethoxy-benzo[1,3]dioxol-4-yl)-5H-pyrrolo[3,2-d]pyrimidine-7-carboxylic acid [1-(2-hydroxy-acetyl)piperidin-3-ylmethyl]-amide] | 0.389 nM |
| C[C@H](O)C(=O)N1CCCC(CNC(=O)c2c[nH]c3c(-c4c(OCC5CC5)ccc5c4OCO5)ncnc23)C1 (stereo partly drawn) [Example 190, 4-(5-Cyclopropylmethoxy-benzo[1,3]dioxol-4-yl)-5H-pyrrolo[3,2-d]pyrimidine-7-carboxylic acid [1-((S)-2-hydroxy-propionyl)piperidin-3-ylmethyl]-amide] | 0.251 nM |
| O=C(NCC1CCN(C(=O)CO)C1)c1c[nH]c2c(-c3c(OCC4CC4)ccc4c3OCO4)ncnc12 (stereo not shown) [Example 191, 4-(5-Cyclopropylmethoxy-benzo[1,3]dioxol-4-yl)-5H-pyrrolo[3,2-d]pyrimidine-7-carboxylic acid [1-(2-hydroxy-acetyl)pyrrolidin-3-ylmethyl]-amide] | 1.02 nM |
| C[C@H](O)C(=O)N1CCC(CNC(=O)c2c[nH]c3c(-c4c(OCC5CC5)ccc5c4OCO5)ncnc23)C1 (stereo partly drawn) [Example 192, 4-(5-Cyclopropylmethoxy-benzo[1,3]dioxol-4-yl)-5H-pyrrolo[3,2-d]pyrimidine-7-carboxylic acid [1-((S)-2-hydroxy-propionyl)pyrrolidin-3-ylmethyl]-amide] | 0.832 nM |
| O=C(NCC1CN(C(=O)CO)CCO1)c1c[nH]c2c(-c3c(OCC4CC4)ccc4c3OCO4)ncnc12 (stereo not shown) [Example 193, 4-(5-Cyclopropylmethoxy-benzo[1,3]dioxol-4-yl)-5H-pyrrolo[3,2-d]pyrimidine-7-carboxylic acid [4-(2-hydroxy-acetyl)morpholin-2-ylmethyl]-amide] | 1.07 nM |
| C[C@H](O)C(=O)N1CCOC(CNC(=O)c2c[nH]c3c(-c4c(OCC5CC5)ccc5c4OCO5)ncnc23)C1 (stereo partly drawn) [Example 194, 4-(5-Cyclopropylmethoxy-benzo[1,3]dioxol-4-yl)-5H-pyrrolo[3,2-d]pyrimidine-7-carboxylic acid [4-((S)-2-hydroxy-propionyl)-morpholin-2-ylmethyl]-amide] | 0.832 nM |
| O=C(NC1CN(C(=O)CO)C1)c1c[nH]c2c(-c3c(OCC4CC4)ccc4c3OCO4)ncnc12 [Example 195, 4-(5-Cyclopropylmethoxy-benzo[1,3]dioxol-4-yl)-5H-pyrrolo[3,2-d]pyrimidine-7-carboxylic acid [1-(2-hydroxy-ethanoyl)-azetidin-3-yl]-amide] | 1.32 nM |
| C[C@H](O)C(=O)N1CC(NC(=O)c2c[nH]c3c(-c4c(OCC5CC5)ccc5c4OCO5)ncnc23)C1 [Example 196, 4-(5-Cyclopropylmethoxy-benzo[1,3]dioxol-4-yl)-5H-pyrrolo[3,2-d]pyrimidine-7-carboxylic acid [1-((S)-2-hydroxy-propanoyl)azetidin-3-yl]-amide] | 0.759 nM |
| C[C@H](O)C(=O)N1CCC[C@H](NC(=O)c2c[nH]c3c(-c4c(OCC5CC5)ccc5c4OCO5)ncnc23)C1 [Example 197, 4-(5-Cyclopropylmethoxy-benzo[1,3]dioxol-4-yl)-5H-pyrrolo[3,2-d]pyrimidine-7-carboxylic acid [(S)-1-((S)-2-hydroxy-propanoyl)piperidin-3-yl]-amide] | 0.851 nM |
